Values of other authors, collected in paper PMC11839696 (European Journal of Nuclear Medicine and Molecular Imaging, 2024).

Tested on: prostate cancer tissue
Design: AUC of the ROC analysis: unit not given beside the values

Question: With `O=C(O)CC[C@H](NC(=O)N[C@@H](CCCCNC(=O)[C@H](Cc1ccc2ccccc2c1)NC(=O)c1ccc(CNC(=O)[C@H](CCC(=O)O)NC(=O)[C@H](CCC(=O)O)NC(=O)c2ccc([18F])nc2)cc1)C(=O)O)C(=O)O` [[^18F]-PSMA-1007] as the compound, how does the sensitivity (at 75 CPM) read?
Answer: 65.1%

Question: And the specificity (at 75 CPM)?
Answer: 87%

Question: What about the “optimal threshold for determining PCa” value (five patients, 113 cores) of the same compound?
Answer: 75 CPM

Question: And the “AUC of the ROC analysis” value (five patients, 113 cores, within 3 h after injection)?
Answer: 0.81
